Where a SMILES comes first, the peptide text is derived from it. [ ]: non-standard residue; d: D form. The star is where a group is joined. Pheψ(CH2S)LeuNH2 = CC(C)C[C@H](SC[C@H](Cc1ccccc1)N*)C(N)=O; pGlu = O=C1CC[C@@H](C(=O)O)N1
Experiments:
Bombesin Receptor = biological target: T1, Bombesin Receptor (Mus musculus, UniProt P21729); assay: Phosphatidylinositol turnover in chopped mouse pancreas; type: cell-based; set-up: key to PI Turnover Agonist: (+) represents agonist activity; (-) indicates no agonist activity
T1 construct: Pancreata from mice were chopped at 350 μm with a tissue chopper and pooled; from tissue; host or cells: chopped mouse pancreas
Protocol: Pancreata from mice were chopped at 350 μm with a tissue chopper and pooled. The chopped tissue was washed twice with oxygenated Krebs-Hepes, then incubated for 30 minutes in 37° C. oxygenated Krebs-Hepes buffer with fresh buffer after 15 minutes. The tissue was then incubated in this buffer containing 200 μCi of [^3 H] inositol at 37° C. for 1 hour. The tissue was then washed twice and incubated for another 30 minutes in oxygenated Krebs-Hepes (containing 10 mM Li^+) at 37° C. with a fresh buffer change after 15 minutes. Portions of the tissue mass (approximately 10 mg per assay tube) were then placed in Li^+ buffer with protease inhibitors, (40 μg/ml bacitracin, 4 μg/ml leupeptin, 4 μg/ml chymostatin, 8 μg/ml thiorphan), 0.1% BSA, and 0.1-10 μM peptide in a final volume of 250 μl. After 60 minutes at room temperature, the phosphatidylinositol turnover was terminated by the addition of 940 μl chloroform:methanol (1:2), followed by 310 μl chloroform, followed by 310 μl water. Each tube was then vortexed for 5 seconds and then centrifuged at 2500 x g for 10 minutes to separate the phases. 50 μl of the bottom phase (chloroform) was withdrawn from each tube and placed in a counting vial, dried, and counted in scintillation fluid. 900 μl of the top (aqueous) phase were then mixed with 2.1 ml water and loaded onto a 0.5 ml Biorad AG-1X8 (formate) ion exchange column. The material on the columns was washed in order with: 1) 10 ml of water 2) 5 ml of 5 mM disodium tetraborate/60 mM sodium formate 3) 10 ml of 1 M ammonium formate in 0.1 M formic acid. The final (third) wash was collected and one ml was mixed with 14 ml of Bio-Safe scintillant and counted. The ratio of these counts (total inositol phosphates) to the corresponding organic phase counts (inositol incorporated into the tissue) was then calculated for each sample. The ratios in the presence of test compound and/or standards were then compared to the ratios for control tubes (i.e., no stimulating agonist). The abilities of test compounds to stimulate phosphatidyl-inositol turnover were determined with the aid of a computer program. […] The ordinate (y-axis) indicates the observed PI turnover as a percentage of control. Values are mean±standard error of triplicate determinations.

[1] = test system: cell surface receptors that bind bombesin; details: background section; read-out: KD of high-affinity cell surface receptors that bind bombesin; cited from earlier work
bombesin/GRP receptor = biological target: T2, bombesin/GRP receptor (Mus musculus, UniProt P21729); assay: Competition for 125I-GRP binding to murine pancreatic membranes; details: Kd (nM), competitive binding, mouse pancreas; averages of multiple experiments
T2 construct: The pancreata from one or more mice were pooled and homogenized; from tissue; host or cells: mouse pancreas membranes
Protocol: The pancreata from one or more mice were pooled and homogenized in 50 mM HEPES (pH 7.4) containing 120 mM NaCl, 5 mM KCl, 1 mM EDTA and protease inhibitors (1 μg/ml aprotinin, leupeptin, pepstatin; 4 μg/ml bacitracin, antipain, bestatin; 100 μM PMSF) at 4° C. and centrifuged at 37,500 X g for 15 minutes. The pellet was resuspended in 50 mM HEPES (pH 7.4) containing 10 mM EDTA, 300 mM KCl, and protease inhibitors, and then incubated for 30 minutes at 4° C. The suspension was centrifuged as above and the pellet was washed two times in 50 mM HEPES (pH 7.4) containing 8 μg/ml thiorphan and protease inhibitors, and again centrifuged. The tissue was then resuspended in incubation buffer (1 ml per 4 mg pancreas) and incubated for 15 minutes at room temperature, then 250 μl were added to each assay tube to commence the assay. […] The assay was allowed to proceed to equilibrium for 90 minutes at room temperature. After this time, the contents of each tube was rapidly filtered over Whatman GF/B filters presoaked in 0.1% polyethyleneimine and the filters were rapidly washed three times with ice-cold 50 mM HEPES (pH 7.4). Filter-bound radioactivity was quantitated in a gamma counter. […] Affinity and maximal binding were calculated with LIGAND (Biosoft, Cambridge, UK) (FIGS. 1 and FIG. 2)
The abscissa (x-axis) logarithmically indicates the concentration of agonists being tested.

T1 sequence (P21729 whole entry): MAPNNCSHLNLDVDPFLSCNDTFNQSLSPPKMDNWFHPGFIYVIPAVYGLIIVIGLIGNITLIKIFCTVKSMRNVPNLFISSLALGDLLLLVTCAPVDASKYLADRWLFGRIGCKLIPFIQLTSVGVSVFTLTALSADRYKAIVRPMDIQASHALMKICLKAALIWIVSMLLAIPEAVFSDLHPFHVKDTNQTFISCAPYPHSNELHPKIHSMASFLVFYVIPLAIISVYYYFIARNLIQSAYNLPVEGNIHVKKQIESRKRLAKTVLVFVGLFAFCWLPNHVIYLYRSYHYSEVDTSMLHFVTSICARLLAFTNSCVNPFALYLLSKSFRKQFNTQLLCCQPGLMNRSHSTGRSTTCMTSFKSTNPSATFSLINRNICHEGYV
T2 sequence (P21729 whole entry): as above

SMILES | PI Turnover Agonist (Bombesin Receptor) | Kd [1] [nM] | PI Turnover % Inhibition (Bombesin Receptor; antagonist activity, referenced to the stimulation produced by 100 nM GRP) [%] | Kd (bombesin/GRP receptor) [nM]
CSCC[C@H](NC(=O)[C@H](CC(C)C)NC(=O)[C@H](Cc1cnc[nH]1)NC(=O)CNC(=O)[C@@H](NC(=O)[C@H](C)NC(=O)[C@H](Cc1c[nH]c2ccccc12)NC(=O)[C@H](CCC(N)=O)NC(=O)[C@H](CC(N)=O)NC(=O)CNC(=O)[C@H](CC(C)C)NC(=O)[C@H](CCCN=C(N)N)NC(=O)[C@H](CCC(N)=O)NC(=O)[C@@H]1CCC(=O)N1)C(C)C)C(N)=O [Bombesin, pGlu--Gln--Arg--Leu--Gly--Asn--Gln--Trp--Ala--Val--Gly--His--Phe--Met--NH2] | + | 1 |  | 
CC(C)C[C@H](NC(=O)[C@H](CCCNC(=N)N)NC(=O)[C@H](CCC(N)=O)NC(=O)[C@@H]1CCC(=O)N1)C(=O)NCC(=O)N[C@@H](CC(N)=O)C(=O)N[C@@H](CCC(N)=O)C(=O)N[C@@H](Cc1c[nH]c2ccccc12)C(=O)N[C@@H](C)C(=O)N[C@H](C(=O)NCC(=O)N[C@@H](Cc1c[nH]cn1)C(=O)N[C@H](CS[C@@H](CC(C)C)C(N)=O)Cc1ccccc1)C(C)C [[Phe^13 .psi.[CH2 S]Leu^14 bombesin, pGlu--Gln--Arg--Leu--Gly--Asn--Gln--Trp--Ala--Val--Gly--His--Phe.psi.[CH2 S]Leu--NH2] ([pGlu]QRLGNQWAVGH-{Pheψ(CH2S)LeuNH2}) |  |  | 54 | 2.8

From patent US5428019A, “Bombesin analogs” (Merrell Dow Pharmaceuticals Inc., priority 1994, dated 1995)
